What was measured:
[1] = test system: barnyardgrass; experiment: Test B pre-/postemergence herbicide test; assay type: in vivo, Echinochloa crus-galli; settings: for Plant response rating (0 to 100 scale), Barnyardgrass: 0 is no effect, preemergence
Summary of the method: (§1)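 Species tested were Echinochloa crus-galli, Ipomoea coccinea, Xanthium strumarium and Oryza sativa, treated both before emergence and at the 1- to 4-leaf stage; rice and barnyardgrass were also tested under flooding at 2 leaves. Greenhouse incubation lasted 13–15 days before visual 0–100 scoring.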

[2] = test system: blackgrass; experiment: Test B postemergence herbicide test; assay type: in vivo, Alopecurus myosuroides
Summary of the method: (§2)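 Plants grow to 1- to 4-leaf stage (2–18 cm) for postemergence spraying, or to 2-leaf stage for the paddy test. Formulated compound is applied. Greenhouse holding lasts 13–15 days. Response is scored visually relative to controls, 0 no effect to 100 complete control; a dash means no result.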

[3] = test system: wheat; experiment: Test B postemergence herbicide test; assay type: in vivo, Triticum aestivum; parameters: key to Wheat plant response rating: 0 = no effect, 100 = complete control
Summary of the method: (§3)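 Formulated test chemicals went onto postemergence plants measuring 2 to 18 cm, at one to four leaves. For the paddy assay, species had reached two leaves. Scoring took place 13–15 days later by eye, relative to untreated plants, using 0 for no effect up to 100 for full control.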

[4] = test system: cocklebur; experiment: Test B pre-/postemergence herbicide test; assay type: in vivo, Xanthium strumarium; settings: for Plant response rating (0 to 100 scale), Cocklebur: 0 is no effect, preemergence
Summary of the method: as §1

[5] = test system: pigweed; experiment: Test B pre-/postemergence herbicide test; assay type: in vivo, Amaranthus retroflexus; settings: for Plant response rating (0 to 100 scale), Pigweed: 0 is no effect, 100 is complete control, preemergence
Summary of the method: (§4)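 Formulation: non-phytotoxic solvent mix with surfactant. Timing: preemergence on seed and postemergence on 2–18 cm plants, applied concurrently. Readout after 13–15 d greenhouse: visual 0–100 control rating against controls.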

[6] = test system: rice; experiment: Test B flooded paddy test; assay type: in vivo, Oryza sativa; settings: 1000 g ai/ha, scale 0 to 100 (0 no effect, 100 complete control)
Summary of the method: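 Scale 0–100: zero equals no visible effect, 100 complete control, judged by eye relative to controls. Timing: 13 to 15 days in greenhouse post-treatment. Growth stage at spraying: two leaves (paddy) or one to four leaves, 2–18 cm (postemergence).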

[7] = test system: giant foxtail; experiment: Test B pre-/postemergence herbicide test; assay type: in vivo, Setaria faberi; settings: for Plant response rating (0 to 100 scale), Foxtail, Giant: 0 is no effect, preemergence
Summary of the method: as §4

[8] = test system: lambsquarters; experiment: Test B pre-/postemergence herbicide test; assay type: in vivo, Chenopodium album; settings: for Plant response rating (0 to 100 scale), Lambsquarters: 0 is no effect, 100 is complete control, preemergence
Summary of the method: as §4

[9] = test system: small flower umbrella sedge; experiment: Test B flooded paddy test; assay type: in vivo, Cyperus difformis; settings: 1000 g ai/ha, scale 0 to 100 (0 no effect, 100 complete control)
Summary of the method: as §2

[10] = test system: Surinam grass; experiment: Test B pre-/postemergence herbicide test; assay type: in vivo, Urochloa decumbens; settings: for Plant response rating (0 to 100 scale), Surinam Grass: 0 is no effect, 100 is complete control, preemergence
Summary of the method: as §4

[11] = test system: morningglory; experiment: Test B pre-/postemergence herbicide test; assay type: in vivo, Ipomoea coccinea; settings: for Plant response rating (0 to 100 scale), Morningglory: 0 is no effect, 100 is complete control, preemergence
Summary of the method: as §1

[12] = test system: barnyardgrass; experiment: Test B flooded paddy test; assay type: in vivo, Echinochloa crus-galli; settings: 1000 g ai/ha, scale 0 to 100 (0 no effect, 100 complete control)
Summary of the method: as §2

[13] = test system: large crabgrass; experiment: Test B pre-/postemergence herbicide test; assay type: in vivo, Digitaria sanguinalis; settings: for Plant response rating (0 to 100 scale), Crabgrass, Large: 0 is no effect, preemergence
Summary of the method: as §4

[14] = test system: velvetleaf; experiment: Test B pre-/postemergence herbicide test; assay type: in vivo, Abutilon theophrasti; settings: for Plant response rating (0 to 100 scale), Velvetleaf: 0 is no effect, 100 is complete control, preemergence
Summary of the method: as §4

[15] = test system: wild oat; experiment: Test B postemergence herbicide test; assay type: in vivo, Avena fatua
Summary of the method: as §3

[16] = 125 g ai/ha, 100 is complete control
[17] = 125 g ai/ha, visual rating, scale 0 (no effect) to 100 (complete control), postemergence
[18] = postemergence, 500 g ai/ha, scale 0 to 100, 0 is no effect, 100 is complete control
[19] = 500 g ai/ha, scale 0 to 100, 0 no effect, 100 complete control, preemergence
[20] = Postemergence, 500 g ai/ha, scale 0 (no effect) to 100 (complete control)
[21] = Postemergence, 125 g ai/ha, scale 0 (no effect) to 100 (complete control)
[22] = postemergence, 125 g ai/ha, scale 0 to 100

SMILES	Plant response rating (0 to 100 scale), Barnyardgrass [1, 16]	Wheat plant response rating [3, 19]	Wheat plant response rating [3, 20]	Plant response rating (0 to 100 scale), Cocklebur [4, 16]	Plant response rating (0 to 100 scale), Pigweed ([5]; 125 g ai/ha)	Pigweed plant response rating [5, 20]	Rice plant response rating [6]	Plant response rating (0 to 100 scale), Foxtail, Giant [7, 16]	Plant response rating (0 to 100 scale), Lambsquarters ([8]; 125 g ai/ha)	Lambsquarters plant response rating [8, 20]	Sedge, Umbrella plant response rating [9]	Plant response rating (0 to 100 scale), Surinam Grass ([10]; 125 g ai/ha)	Surinam Grass plant response rating [10, 20]	Plant response rating (0 to 100 scale), Morningglory ([11]; 125 g ai/ha)	Morningglory plant response rating [11, 20]	Barnyardgrass plant response rating [12]	Plant response rating (0 to 100 scale), Crabgrass, Large [13, 16]	Plant response rating (0 to 100 scale), Velvetleaf ([14]; 125 g ai/ha)	Velvetleaf plant response rating [14, 20]	Oat, Wild plant response rating [15, 20]	also measured
CCc1nn(C(C)C)nc1C(=O)Nc1cccc(C(=O)N2CCCCC2)c1 [Compound 385]	80	80	10	0	70	60	80	30	90	60	80	80	20	20	80	80	90	60	20	20	Barnyardgrass plant response rating [1, 17]: 0; Barnyardgrass plant response rating [1, 18]: 10; Blackgrass plant response rating [2, 17]: 10; Blackgrass plant response rating [2, 18]: 30; Wheat plant response rating [3, 17]: 0; Cocklebur plant response rating [4, 17]: 20; Cocklebur plant response rating [4, 18]: 50; Pigweed plant response rating [5, 17]: 50; Foxtail, Giant plant response rating [7, 17]: 10; Foxtail, Giant plant response rating [7, 18]: 20; Lambsquarters plant response rating [8, 17]: 50; Surinam Grass plant response rating [10, 17]: 0; Morningglory plant response rating [11, 17]: 30; Crabgrass, Large plant response rating [13, 17]: 0; Crabgrass, Large plant response rating [13, 18]: 20; Velvetleaf plant response rating [14, 17]: 20; Oat, Wild plant response rating [15, 17]: 0
CCc1nn(C(C)C)nc1C(=O)Nc1cccc(C(=O)N(C)CC)c1 [Compound 386]	90	100	0	20	100	60	80	90	100	60	80	80	10	50	20	90	100	60	50	0	Barnyardgrass plant response rating [1, 17]: 0; Barnyardgrass plant response rating [1, 18]: 10; Blackgrass plant response rating [2, 17]: 0; Blackgrass plant response rating [2, 18]: 40; Wheat plant response rating [3, 17]: 0; Cocklebur plant response rating [4, 17]: 40; Cocklebur plant response rating [4, 18]: 50; Pigweed plant response rating [5, 17]: 50; Foxtail, Giant plant response rating [7, 17]: 20; Foxtail, Giant plant response rating [7, 18]: 20; Lambsquarters plant response rating [8, 17]: 30; Surinam Grass plant response rating [10, 17]: 10; Morningglory plant response rating [11, 17]: 20; Crabgrass, Large plant response rating [13, 17]: 10; Crabgrass, Large plant response rating [13, 18]: 20; Velvetleaf plant response rating [14, 17]: 40; Oat, Wild plant response rating [15, 17]: 0
CCn1nc(C(C)(C)C)cc1C(=O)Nc1cccc(OS(=O)(=O)CC)c1 [Compound 408]	70	80	30	0	100	100	80	40	100	100	90	30	30	20	30	70	90	50	70	50	Barnyardgrass plant response rating [1, 21]: 20; Barnyardgrass plant response rating [1, 20]: 40; Blackgrass plant response rating [2, 20]: 80; Blackgrass plant response rating [2, 22]: 40; Wheat plant response rating [3, 22]: 20; Cocklebur plant response rating [4, 20]: 70; Cocklebur plant response rating [4, 22]: 60; Pigweed plant response rating [5, 22]: 90; Foxtail, Giant plant response rating [7, 20]: 50; Foxtail, Giant plant response rating [7, 22]: 30; Lambsquarters plant response rating [8, 22]: 90; Surinam Grass plant response rating [10, 22]: 20; Morningglory plant response rating [11, 22]: 10; Crabgrass, Large plant response rating [13, 20]: 50; Crabgrass, Large plant response rating [13, 22]: 30; Velvetleaf plant response rating [14, 22]: 30; Oat, Wild plant response rating [15, 22]: 30
CCc1nn(C(C)C)nc1C(=O)Nc1cccc(C(=S)N(C)C)c1 [Compound 409]	90	100	10	10	90	70	70	70	100	70	90	90	30	60	70	90	90	30	0	10	Barnyardgrass plant response rating [1, 21]: 0; Barnyardgrass plant response rating [1, 20]: 0; Blackgrass plant response rating [2, 20]: 40; Blackgrass plant response rating [2, 22]: 10; Wheat plant response rating [3, 22]: 0; Cocklebur plant response rating [4, 20]: 10; Cocklebur plant response rating [4, 22]: 0; Pigweed plant response rating [5, 22]: 30; Foxtail, Giant plant response rating [7, 20]: 20; Foxtail, Giant plant response rating [7, 22]: 0; Lambsquarters plant response rating [8, 22]: 30; Surinam Grass plant response rating [10, 22]: 10; Morningglory plant response rating [11, 22]: 0; Crabgrass, Large plant response rating [13, 20]: 10; Crabgrass, Large plant response rating [13, 22]: 0; Velvetleaf plant response rating [14, 22]: 0; Oat, Wild plant response rating [15, 22]: 0

— patent US20060069132A1, “Azolecarboxamide herbicides” (priority 2004, published 2006)
